Data: ChEMBL document CHEMBL1201862, “PubChem BioAssay data set” (2004)
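Cultured in 96-well plates, cells were exposed to test compound for 48 hours across five concentrations. GI50 marks 50% less growth.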 Active and inactive are the calls of the source. Cut-off read from the data, not from the text of the source: active = GI50 up to about 1.1 µM and inactive = higher.

Key:
Assay in all cases: growth of human tumour cells (NCI), 48 h
CAKI-1 = test system: CAKI-1
CCRF-CEM = test system: CCRF-CEM
HCC 2998 = test system: HCC 2998
HOP-62 = test system: HOP-62
Hs-578T = test system: Hs-578T
KM12 = test system: KM12
LOX IMVI = test system: LOX IMVI
M14 = test system: M14
MOLT-4 = test system: MOLT-4
Malme-3M = test system: Malme-3M
NCI-H23 = test system: NCI-H23
NCI-H522 = test system: NCI-H522
OVCAR-3 = test system: OVCAR-3
OVCAR-8 = test system: OVCAR-8
RPMI-8226 = test system: RPMI-8226
SK-MEL-2 = test system: SK-MEL-2
SK-MEL-5 = test system: SK-MEL-5
SNB-19 = test system: SNB-19
T47D = test system: T47D
UACC-257 = test system: UACC-257

Measured: GI50

CC(=O)O[C@H]1CC[C@@]2(C)C(=CC[C@H]3[C@@H]4C[C@H](N5CCCC5)[C@H](OC(C)=O)[C@@]4(C)CC[C@@H]32)C1
inactive: CAKI-1 > 100 µM | CCRF-CEM > 67.8 µM | HCC 2998 > 93.3 µM | HOP-62 > 100 µM | Hs-578T > 100 µM | KM12 > 100 µM | LOX IMVI 49.2 µM | M14 18.2 µM | MOLT-4 > 81.5 µM | Malme-3M 33.7 µM | NCI-H23 > 100 µM | NCI-H522 > 100 µM | OVCAR-3 > 86.3 µM | OVCAR-8 > 100 µM | RPMI-8226 > 60.1 µM | SK-MEL-2 > 100 µM | SK-MEL-5 23 µM | SNB-19 > 100 µM | T47D > 100 µM | UACC-257 38 µM

N#CCC(=O)N/N=C\C(O)C(O)C(O)C(O)CO (stereo not given)
inactive: CAKI-1 > 100 µM | CCRF-CEM > 100 µM | HCC 2998 > 100 µM | HOP-62 > 100 µM | Hs-578T > 100 µM | KM12 > 100 µM | LOX IMVI > 100 µM | M14 > 100 µM | MOLT-4 > 100 µM | Malme-3M > 100 µM | NCI-H23 > 100 µM | NCI-H522 > 100 µM | OVCAR-3 > 100 µM | OVCAR-8 > 100 µM | RPMI-8226 > 100 µM | SK-MEL-2 > 100 µM | SK-MEL-5 > 100 µM | SNB-19 > 100 µM | T47D > 100 µM | UACC-257 > 100 µM

CC1=CC(C)C(C)N(CCNS(=O)(=O)c2ccc(C)cc2)c2ccccc21 (stereo not given)
inactive: CAKI-1 20.4 µM | CCRF-CEM 13 µM | HCC 2998 16.4 µM | HOP-62 16.3 µM | Hs-578T 12.9 µM | KM12 19.1 µM | LOX IMVI 10.2 µM | M14 12.3 µM | MOLT-4 12.2 µM | Malme-3M 14.1 µM | NCI-H23 13.6 µM | NCI-H522 18.2 µM | OVCAR-3 12.5 µM | OVCAR-8 14.6 µM | RPMI-8226 12.2 µM | SK-MEL-2 12 µM | SK-MEL-5 > 10 µM | SNB-19 > 31.6 µM | T47D 10.8 µM | UACC-257 16.1 µM

Cc1cc2nc(N3C(=O)/C(=C/c4ccc(Oc5ccccc5)cc4)N=C3c3ccccc3)sc2cc1C
inactive: CAKI-1 50.5 µM | CCRF-CEM 26.7 µM | HCC 2998 40 µM | HOP-62 > 100 µM | Hs-578T 52.2 µM | KM12 26.1 µM | LOX IMVI 44.6 µM | M14 51.8 µM | MOLT-4 30.2 µM | Malme-3M 70.6 µM | NCI-H23 42.7 µM | NCI-H522 24.6 µM | OVCAR-3 59.3 µM | OVCAR-8 71.8 µM | RPMI-8226 24.4 µM | SK-MEL-2 23.3 µM | SK-MEL-5 30.8 µM | SNB-19 > 100 µM | T47D 42.3 µM | UACC-257 29.2 µM

CCCC[C@@H](C)/C=C1\CN2CCC[C@H]2[C@@](C)(OCc2ccccc2)[C@@H]1O
inactive: CAKI-1 > 50 µM | CCRF-CEM > 50 µM | HCC 2998 > 50 µM | HOP-62 5.98 µM | Hs-578T > 50 µM | KM12 > 13.8 µM | LOX IMVI > 50 µM | M14 > 50 µM | MOLT-4 > 41.9 µM | Malme-3M > 50 µM | NCI-H23 > 50 µM | NCI-H522 > 27.9 µM | OVCAR-3 > 17.5 µM | OVCAR-8 > 47.4 µM | RPMI-8226 > 15.5 µM | SK-MEL-2 > 50 µM | SK-MEL-5 > 50 µM | SNB-19 > 23.8 µM | T47D 8.79 µM | UACC-257 > 17.6 µM

Cn1c([C@H](C#N)C(=O)c2cc(O)ccc2[N+](=O)[O-])nc2ccccc21
inactive: CAKI-1 > 100 µM | CCRF-CEM 10.6 µM | HCC 2998 > 100 µM | HOP-62 > 100 µM | Hs-578T > 100 µM | KM12 > 100 µM | LOX IMVI > 100 µM | M14 > 100 µM | MOLT-4 4.2 µM | Malme-3M 17.2 µM | NCI-H23 > 100 µM | NCI-H522 > 100 µM | OVCAR-3 > 100 µM | OVCAR-8 > 100 µM | RPMI-8226 > 100 µM | SK-MEL-2 > 100 µM | SK-MEL-5 > 100 µM | SNB-19 > 100 µM | T47D > 100 µM | UACC-257 > 100 µM
